Measurements taken from patent publication US5998362A, “Conjugates useful in the treatment of prostate cancer” (priority 1997, dated 1999).
Where a SMILES comes first, the peptide text is derived from it. [ ]: non-standard residue; d: D form. The star is where a group is joined. Doxorubicin(3'-N) = COc1cccc2c1C(=O)c1c(O)c3c(c(O)c1C2=O)C[C@@](O)(C(=O)CO)C[C@@H]3O[C@H]1C[C@H](N*)[C@H](O)[C@H](C)O1; Decanoyl(3,6,9-trioxa) = COCCOCCOCC(=O)*; hArg = N=C(N)NCCCC[C@H](N)C(=O)O; Chg = N[C@H](C(=O)O)C1CCCCC1

Assays:
[1] = biological target: free PSA (Homo sapiens, UniProt P07288); assay: Recognition of oligopeptide-doxorubicin conjugates by free PSA (time to 50% cleavage, HPLC); format: biochemical; design: required for 50% cleavage of the noted oligopeptides with enzymatically active free PSA; conditions: Table 3, DOX conjugates
Method: If no salt is indicated for the conjugate, the free conjugate was tested.

[2] = test system: LNCap prostate tumor cells; assay: In vitro cytotoxicity of peptidyl derivatives of doxorubicin, Alamar Blue assay, LNCaP; format: cell-based
Method: (§1) The cytotoxicities of the cleaveable oligopeptide-doxorubicin conjugates, prepared as described in Examples 3-6, against a line of cells which is known to be killed by unmodified doxorubicin was assessed with an Alamar Blue assay. Specifically, cell cultures of LNCap prostate tumor cells or DuPRO cells in 96 well plates was diluted with medium containing various concentrations of a given conjugate (final plate well volume of 200 μl). The cells were incubated for 3 days at 37° C., 20 μl of Alamar Blue is added to the assay well. The cells were further incubated and the assay plates were read on a EL-310 ELISA reader at the dual wavelengths of 570 and 600 nm at 4 and 7 hours after addition of Alamar Blue. Relative percentage viability at the various concentration of conjugate tested was then calculated versus control (no conjugate) cultures. If no salt is indicated, the free conjugate was tested.

[3] = test system: DuPRO cells; assay: In vitro cytotoxicity of peptidyl derivatives of doxorubicin, Alamar Blue assay, DuPRO; format: cell-based; conditions: 3 days incubation, read-out: DuPRO cell kill EC 50 (μM), value in parentheses
Method: as §1

Chain of free PSA (P07288 25-261): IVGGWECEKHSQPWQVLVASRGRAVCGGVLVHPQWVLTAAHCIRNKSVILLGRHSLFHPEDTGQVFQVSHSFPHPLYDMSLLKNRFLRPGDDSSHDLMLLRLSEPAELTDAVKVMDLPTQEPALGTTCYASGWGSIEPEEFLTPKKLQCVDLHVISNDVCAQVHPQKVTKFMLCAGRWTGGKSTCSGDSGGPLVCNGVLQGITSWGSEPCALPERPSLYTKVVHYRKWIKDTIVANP

COCCOCCOCC(=O)N[C@@H](CO)C(=O)N[C@@H](CO)C(=O)N[C@@H](CO)C(=O)N[C@H](C(=O)N[C@@H](CCC(N)=O)C(=O)N[C@@H](CO)C(=O)N[C@H](CC(C)C)C(=O)N[C@H]1C[C@H](O[C@H]2C[C@](O)(C(=O)CO)Cc3c(O)c4c(c(O)c32)C(=O)c2c(OC)cccc2C4=O)O[C@@H](C)[C@H]1O)C1CCCCC1 [PEG(2)-SSSChgQ-S(dL)-DOX(3'), PEG(2)-SerSerSerChgGln-Ser(dLeu)-DOX (3')] was tested, and the “Substrate cleavage by York PSA at 3 HOUR” value ([1]; 3 hours) was 46%.
With COCCOCCOCC(=O)N[C@@H](CCCCNC(=N)N)C(=O)N[C@H](C(=O)N[C@@H](CCC(N)=O)C(=O)N[C@@H](CO)C(=O)N[C@@H](CC(C)C)C(=O)N[C@H]1C[C@H](O[C@H]2C[C@](O)(C(=O)CO)Cc3c(O)c4c(c(O)c32)C(=O)c2c(OC)cccc2C4=O)O[C@@H](C)[C@H]1O)C1CCCCC1 [PEG(2)-hRChgQ-SL-DOX(3'), PEG(2)-hArgChgGln-SerLeu-DOX (3')] ({Decanoyl(3,6,9-trioxa)}-[hArg][Chg]QSL-{Doxorubicin(3'-N)}) the “Solubility remark in the cell kill column (INSOLUBLE / PS)” value ([2]; Table 4, DOX conjugates, abbreviation not defined) was “INSOLUBLE”.
With “N-[2-{2-(2-methoxyethoxy)ethoxy}acetyl]-Ser-Ser-Ser-Chg-Gln-Ser-Leu-Dox [PEG(2)-SSSChgQ-SL-DOX(3')]” the “Time to 50% Substrate Cleavage by York PSA” value ([1]; buffer 50 mM Tris pH7.4, 140 mM NaCl, conjugate:PSA 100 to 1) was 60 min, the EC50 ([2]; LNCaP cells, 72 h (3 days) incubation, Alamar Blue, read-out: LNCaP Cell Kill in 72 HRS, {48 HRS} EC 50) was 10 µM and the EC50 [3] was greater than 100 µM.
